The subject of data set [1] is SARS-CoV-2 (isolate USA WA1/2020). Format: cell-based. The conditions noted are these: Calu3 cells, 2 h pretreatment, MOI=0.5, 48 h post-infection, compared to DMSO control.
Data set [2] has as its system Calu3 (ATCC, HTB-55) cells. The conditions noted are these: average of three replicates, (sample well/aggregated DMSOavg)*100.

Structures are written as SMILES. Read-outs that look alike come from different tables or passages of the source.

For `C[C@H]1[C@H](OC(=O)CCC(=O)O)O[C@@H]2O[C@@]3(C)CC[C@H]4[C@H](C)CC[C@@H]1[C@@]24OO3` [Artesunate], the “% Infection” value in data set [1] (0.02 μM) is on record as 110.9%; in data set [1] (0.07 μM) it was 90.0%; in data set [1] (0.21 μM), 80.7%; in data set [1] (0.62 μM), 44.7%; in data set [1] (1.85 μM) it was 18.0%; in data set [1] (5.56 μM), 14.7%. The results for the “% Infection” value in data set [1] (16.67 μM) and in data set [1] (50.00 μM) were 16.1% and 4.7%, respectively. Further, the Viability in data set [2] (0.02 μM) came to 95.4; in data set [2] (0.07 μM) it was 102.6; in data set [2] (0.21 μM), 100.5; in data set [2] (0.62 μM) it was 97.7; in data set [2] (1.85 μM) it was 95.1; in data set [2] (5.56 μM), 92.9. Besides, the Viability is 91.1 in data set [2] (16.67 μM) and 78.3 in data set [2] (50.00 μM).
`COc1cc(-c2oc3cc(O)cc(O)c3c(=O)c2O)ccc1O` [Isorhamnetin]: the “% Infection” value is on record as 93.6% in data set [1] (0.02 μM); 79.5% in data set [1] (0.07 μM); 103.8% in data set [1] (0.21 μM); 60.4% in data set [1] (0.62 μM); 83.8% in data set [1] (1.85 μM); 5.3% in data set [1] (5.56 μM). For the same compound, the “% Infection” value in data set [1] (16.67 μM) is reported as 7.9%. Besides, the Viability amounted to 99.6 in data set [2] (0.02 μM); 99.6 in data set [2] (0.07 μM); 99.4 in data set [2] (0.21 μM); 98.8 in data set [2] (0.62 μM); 101.0 in data set [2] (1.85 μM); 99.8 in data set [2] (5.56 μM). Further, the Viability in data set [2] (16.67 μM) was 83.7; in data set [2] (50.00 μM), 73.0.
As for `C[C@H]1[C@@H](O)O[C@@H]2O[C@@]3(C)CC[C@H]4[C@H](C)CC[C@@H]1[C@@]24OO3` [Dihydroartemisinin], the “% Infection” value in data set [1] (0.02 μM) is 76.6%; in data set [1] (0.07 μM), 103.6%; in data set [1] (0.21 μM), 73.6%; in data set [1] (0.62 μM), 23.0%; in data set [1] (1.85 μM), 13.5%; in data set [1] (5.56 μM), 7.0%. Besides, the “% Infection” value is 12.8% in data set [1] (16.67 μM) and 2.0% in data set [1] (50.00 μM).
